Data set [1] in a line: Solubility in various solvents at 25° C. Type of data set: physicochemical. The settings on record: organic solvent or mixture. The procedure: The solubility of the compound 1Aa at 25° C. was compared to the solubility of compound 2Aa in various solvents.
For data set [2] the following is noted: background statement, no solvent given; cited from earlier work.
[3] abbreviates: CH3CN, read-out: solubility in CH3CN.
Where [4] appears, read: CHCl3, read-out: solubility in CHCl3.
[5] abbreviates: DMF, read-out: solubility in DMF.

Like-named read-outs stand apart in the source and are kept apart here.

For the compound `CCC(C)(C)c1ccc(-[s+]2c3cc4ccccc4cc3c3sc4cc5ccccc5cc4c32)cc1.F[B-](F)(F)F` (stereo not shown) [Compound 1Aa], the solubility – broadly, the concentration that dissolves in the medium under given conditions – in data set [1] (setting [3]) worked out at 5000 µg/mL; in data set [1] (setting [4]) it was 5000 µg/mL; in data set [1] (setting [5]), 8000 µg/mL.
Turning to `c1ccc2cc3c(cc2c1)sc1c2cc4ccccc4cc2sc31` [Compound 2Aa, dinaphtho[2,3-b:2′,3′-f]thieno[3,2-b]thiophene], the “solubility (in words)” value in data set [2] is “low solubility”. Further, the solubility in data set [1] (setting [3]), in data set [1] (setting [4]) and in data set [1] (setting [5]) was < 1000 µg/mL each time.

(Values after patent US11152578B2, “Sulfonium salts of DNTT and related compounds as soluble photocleavable precursors for organic semiconductors for use in organic field-effect transistors” (Clap Co., Ltd., priority 2017, dated 2021).)
